Read-outs that look alike come from different tables or passages of the source.
How the values were obtained:
[1] = tested on: M. tuberculosis H37Rv; test: Growth of H37Rv on cholesterol or 4-AD as growth substrate; type: cell-based; details: for growth of H37Rv colonies on solid medium: substance as the sole organic substrate, no growth on control medium
[2] = target: HsaCH37Rv (Mycobacterium tuberculosis, UniProt P9WNW7); type: biochemical, M. tuberculosis H37Rv; details: for Km: cell extract, pH 8.0, 25 °C
Chain of HsaCH37Rv (P9WNW7 whole entry, looked up): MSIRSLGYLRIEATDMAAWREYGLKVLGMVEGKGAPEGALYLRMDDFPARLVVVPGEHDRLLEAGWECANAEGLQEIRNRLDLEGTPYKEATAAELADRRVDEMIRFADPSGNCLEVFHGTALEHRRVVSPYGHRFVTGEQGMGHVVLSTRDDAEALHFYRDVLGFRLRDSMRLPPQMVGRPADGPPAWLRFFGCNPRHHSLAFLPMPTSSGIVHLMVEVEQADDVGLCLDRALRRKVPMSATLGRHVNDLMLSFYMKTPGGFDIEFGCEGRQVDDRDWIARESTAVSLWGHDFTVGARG

[3] = target: HsaDH37Rv (Mycobacterium tuberculosis, UniProt P9WNH5); type: biochemical, M. tuberculosis H37Rv; details: for Vmax / Km: substrate of HsaDH37Rv, standard error in parentheses; for Km: cell extract, pH 8.0, 25 °C
Chain of HsaDH37Rv (P9WNH5 whole entry, looked up): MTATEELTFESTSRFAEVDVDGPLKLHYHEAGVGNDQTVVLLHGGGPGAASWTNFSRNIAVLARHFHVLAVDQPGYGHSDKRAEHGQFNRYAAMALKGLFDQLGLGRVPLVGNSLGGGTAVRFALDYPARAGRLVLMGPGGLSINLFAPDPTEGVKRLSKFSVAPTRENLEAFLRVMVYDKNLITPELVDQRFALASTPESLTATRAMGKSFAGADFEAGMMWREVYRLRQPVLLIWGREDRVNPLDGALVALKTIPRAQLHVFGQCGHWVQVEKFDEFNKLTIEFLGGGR

[4] = tested on: M. bovis Bacillus Calmette-Guerin (BCG); type: cell-based
[5] = target: M tuberculosis HsaC (Mycobacterium tuberculosis, UniProt P9WNW7); test: Inhibition of cloned M. tuberculosis HsaC, spectroscopic assay; type: biochemical; details: in a manner consistent with oxidation of the active site Fe(II)
Chain of M tuberculosis HsaC (P9WNW7 whole entry, looked up): as the sequence (P9WNW7 whole entry, looked up) above

[6] = substrate of HsaCH37Rv, standard error in parentheses

In the case of `C[C@]12CCC(=O)C=C1CC[C@@H]1[C@@H]2CC[C@]2(C)C(=O)CC[C@@H]12` [4-AD, 4-androstene-3,17-dione], the “growth of H37Rv colonies on solid medium” value [1] is reported as “Colonies grew”.

With `Cc1ccc(O)c(O)c1CC[C@@H]1C(=O)CC[C@]2(C)C(=O)CC[C@@H]12` [3,4-DHSA, 3,4-dihydroxy-9,10-seconandrost-1,3,5(10)-triene-9,17-dione] the “apparent specificity of extradiol cleavage relative to DHB” value [2] was 44 fold, the Vmax ([2]; substrate of HsaCH37Rv, […], standard error in parentheses) was 12 (4) μM^s−1 and the Km [2, 6] was 0.9 µM.

With `O=C(O)C(O)=CC=CC(=O)c1ccccc1` [HOPDA, 2-hydroxy-6-oxo-6-phenylpentadienoate] the Vmax ([3]; […]) was 0.009 (0.003) μM^s−1 and the Km [3] was 19 µM.

In the case of `C/C(=C\C=C(/O)C(=O)O)C(=O)CC[C@@H]1C(=O)CC[C@]2(C)C(=O)CC[C@@H]12` [4,9-DSHA, 4,5-9,10-diseco-3-hydroxy-5,9,17-trioxoandrosta-1(10),2-diene-4-oic acid], the “apparent specificity of hydrolysis relative to HOPDA” value ([3]; […], higher than for HOPDA) is reported as 34 fold, the Vmax ([3]; […]) is reported as 0.06 (0.02) μM^s−1 and the Km [3] is reported as 4 µM.

`CC(C)CCC[C@@H](C)[C@H]1CC[C@H]2[C@@H]3CC=C4C[C@@H](O)CC[C@]4(C)[C@H]3CC[C@]12C` [cholesterol] was tested, and the “overall protein yield of BCG culture” value ([4]; medium supplemented with 0.25 mM cholesterol (0 mM: 22+/−7)) was 46 ± 9 µg/mL, the “overall protein yield of BCG culture” value ([4]; medium supplemented with 0.5 mM cholesterol (0 mM: 22+/−7)) was 70 ± 4 µg/mL and the “growth of H37Rv in liquid culture” value ([1]; phospholipid vesicles containing cholesterol versus vesicles containing no cholesterol) was “grew faster”. The “growth of H37Rv colonies on solid medium” value [1] was “Colonies grew”.

For `Oc1cccc(Cl)c1O` [3CC, 3-chlorocatechol], the “inactivation of HsaC” value [5] was “inactivated HsaC”.

With `Oc1cccc(-c2ccccc2)c1O` [DHB] the Vmax [2] was 2.5 (0.4) μM^s−1 and the Km [2, 6] was 8.5 µM.
